US11634381B2, “RUNX2 transcription factor inhibitors and uses thereof” (University of Maryland, Baltimore, priority 2015, dated 2023)

Columns and labels:
Type in all cases: cell-based, human
breast cancer cells = test: Caspase 3/7 assay; settings: 50 μM, within 72 hrs
Description: Cells were cultured in 96-well plates (30,000 cells/well). After compound 1 treatment for 24-72 hrs, cellular apoptosis was analyzed using the Caspase-Glo 3/7 Assay kit (Promega) according to the manufacturer's instructions.

MCF7-tet-off cells = test: 96 Well BME Cell Invasion Assay; settings: MCF7-tet-off (+Doxy) and (-Doxy), 50 μM, 24 hrs
Description: MCF7-tet-off cells were grown in the media with (+Doxy) or without doxycycline (−Dox) for 72 hours. Cells were then treated with compound 1 (50 μM) for 24 hrs, and trypsinized and suspended in serum-free media. Cells were re-plated in the top chamber precoated with 0.1× BME (Cultrex), and growth medium supplemented with 10% FBS was used as a chemoattractant in the bottom chamber. compound 1 was added to both chambers and incubated for 16 hrs. Cellular invasion was analyzed according to the 96 Well BME Cell Invasion Assay protocol (Cultrex).

sE-Cad = sE-Cad production by Western blot
Description: MCF7 cells were grown to subconfluence in the presence or absence of doxycycline for 72 hr in full media as described above. Cells were then treated in minimal DMEM (Sigma, D5030) containing 0.1% BSA, 1% L-glutamine, 2% Tet-Approved FBS, and 1 mM glucose for 16 hours followed by treatment with 2 ng/mL TGFβ (R&D Systems, 240-B-002) for 48 hours in the presence or absence of EGTA to examine sE-Cad expression levels, TAZ localization, and HER2 expression levels. Cells were washed with PBS and scraped from plates. Cytoplasmic and nuclear lysates were obtained using the Low/High Salt extraction method. Cytoplasmic extracts were obtained by resuspending cells in NP40 containing Hypotonic Buffer (10 mM HEPES pH 7.4, 1.5 mM MgCl2, 10 mM KCI, 0.5% NP40) followed by a 30 min incubation on ice and centrifiugation. Nuclear extracts were obtained by resuspending the nuclear pellet in an equal volume of low salt buffer (10 mM HEPES, 25% glycerol, 1.5 mM MgCl2, 20 mM KCI, 0.2 mM EDTA) followed by high salt buffer (10 mM HEPES, 25% glycerol, 1.5 mM MgCl2, 800 mM KCl, 0.2 mM EDTA) followed by vortexing, 30 min incubation on ice, another vortex, and centrifugation. Samples were resolved on 4-12% Bis-Tris polyacrylamide gradient gels (Invitrogen) and transferred to PVDF membranes (Millipore). […] Protein levels were normalized to actin and quantified using NIH Image-J software.
To assay for sE-Cad levels, MCF7 Tet.OFF cells were grown in the absence or presence of doxycycline for 3 days and then transfected with TAZ siRNA #1 using Lipofectamine-2000. […] After 72 hours, nuclear and cytoplasmic extracts were obtained using the High/Low salt extraction method described above and analyzed for sE-Cad, TAZ, and RUNX2. Protein levels were normalized to actin and quantified using NIH Image-J software.
MCF7 Tet.OFF cells were pretreated in the absence or presence of doxycycline for 3 days. […] Nuclear and cytoplasmic extracts were obtained using High/Low salt extraction method and protein levels analyzed by Western blot (see above).

[1] = tested on: MDA-231, MCF7, MDA-468, BT474 cells; test: Combination of compound 1 and CDK inhibitors, cell proliferation and colony assays

SMILES: O=C(O)C1C2C=CC(C2)C1C(=O)Nc1ccc(Cl)c(Cl)c1 (stereo not drawn) [compound 1, 3-(N-(3,4-dichlorophenyl)carbamoyl)-5-norbornene-2-carboxylic acid]
- caspase-3/7 activity compared to vehicle controls (breast cancer cells): no change
- invasiveness (MCF7-tet-off cells): almost abrogated
- decrease in sE-Cad production (sE-Cad; RUNX2 negative cells (doxycycline+)): 2 fold
- decline of sE-Cad levels (sE-Cad; RUNX2 positive cells, 50 μM, by 72 hr): ~20 fold
- increase of sE-Cad production (sE-Cad; RUNX2 positive cells, 50 μM, first 24 hr): 3.5 fold
- growth inhibition of BT474 cells [1]: sensitive
